≈ marks a conversion by molar mass, not a printed value. Like-named read-outs stand apart in the source and are kept apart here.
Key:
[1] = Salt screen: stability on drying and humidity exposure, hygroscopicity; type: physicochemical
Description: A stock solution with concentration of 85 mg/mL was prepared in TFE. Stock solutions of fourteen different counter ions (e.g., benzenesulfonic acid, benzoic acid, phosphoric acid, sulfuric acid, citric acid, glucuronic acid, glutamic acid, hydrochloric acid, malic acid, methanesulfonic acid, Succinic acid, tartaric acid, toluenesulfonic acid, and acetic acid) were prepared in EtOH. 352 μL (30 mg) of the freebase solution was added to each vial. 1.1 and/or 2.2 equivalents of the appropriate counter ion stock solution were added to each vial. The vials were left to stir at 45° C. for two hours before being uncapped and left to evaporate at 40° C. with stirring overnight in atmosphere. The vials were then placed under active vacuum at 50° C. for 3 hours to dry thoroughly. Approximately, 20 volumes (600 μL) of screening solvent were then added to each vial, and the samples were heated to 45° C. with stirring (450 rpm). […] After two hours, the samples were left to stir at room temperature.
Crystalline salts were characterized and evaluated for viability based on melting point, crystallinity, stability on drying and humidity exposure, water solubility, polymorphism, and acceptability of counter-ion.

[2] = Brain penetration potential
[3] = Phase 1 single and multiple ascending dose study (safety, tolerability, pharmacokinetics); type: in vivo, human
Description: Compound (I) was administered as the monophosphate salt. Screening of subjects occurred within 28 days prior to (first) dosing. Subjects participated in only 1 cohort in only 1 study part.
Part 1 (SAD): Six (6) cohorts of 8 subjects each (6 active and 2 placebo) were evaluated. […] The first cohort (Cohort S1) included a sentinel group (1 active and 1 placebo) which was dosed at least 24 hours before the remaining 6 subjects (5 active and 1 placebo). Dosing of the remaining 6 subjects in Cohort S1 was conducted following a safety evaluation of the sentinel group.
Blood samples were collected pre-dose on Day-1, on Day 2, and on Day 5 to measure pharmacodynamic (PD) biomarker (tryptase) concentration.
Part 2 (MAD): Four (4) cohorts of 8 subjects each (6 active and 2 placebo) were evaluated.
Plasma samples were collected pre-dose on Days 1-10 for PK assessment. Plasma samples were also collected through 24 hours post-dose on Day 1 and through 96 hours post-dose on Day 10 for PK assessment. Blood samples were collected pre-dose on Day 1, and pre-dose on Days 2, 5, and 9 to measure PD biomarker (tryptase) concentration. […] Safety was assessed according to incidence and severity of adverse events in recipients of Compound (I) as compared with placebo.

[4] = as above; type: in vivo, human; settings: five SAD cohorts and three MAD cohorts
[5] = Solubility of Compound (I) free base in solvents at 50° C.; type: physicochemical; settings: organic solvent or mixture

Row | behaviour of solids upon humidification (high humidity) [1] | brain penetration potential [2] | solubility ([5]; ACN:water (7:3 vol.), sample 82-2, read-out: Solubility (mg/mL) at 50° C.) [mg/mL] | solubility ([5]; t-BuOH, sample 83-1, read-out: Solubility (mg/mL) at 50° C.) [mg/mL] | solubility ([5]; t-BuOH:water (9:1 vol.), sample 83-2, read-out: Solubility (mg/mL) at 50° C.) [mg/mL] | Compound | severity of adverse events ([3]; abdominal pain, decreased appetite, fatigue, headache, nausea, mostly not related to the drug) | increase in systemic exposure with dose ([3]; across SAD and MAD cohorts) | linearity of pharmacokinetics ([3]; across the dose ranges in SAD and MAD cohorts) | half-life ([3]; human, plasma, oral, healthy adult subjects, given as monophosphate salt, read-out: mean half-life (t1/2)) [h] | Vd/F ([3]; human, plasma, oral, healthy adult subjects, read-out: geometric mean Vz/F) [L] | Tmax ([3]; human, plasma, single oral doses 15-200 mg, fasting, healthy adult subjects, given as monophosphate salt, read-out: median Tmax) [h] | findings in laboratory or vital signs parameters ([3]; in vivo) | serious AEs ([3]; in vivo) | steady state expected to be reached ([3]; once-daily oral dosing) [days] | tolerability [4]
1 | deliquescing | – | – | – | – | tosylate | – | – | – | – | – | – | – | – | – | –
2 | – | limited | 8.6 (≈ 16.3 mM) | < 2.6 | < 2.6 | C[C@](N)(c1ccc(F)cc1)c1cnc(N2CCN(c3ncnn4cc(-c5cnn(CCO)c5)cc34)CC2)nc1 [Compound (I), (S)-2-(4-(4-(4-(5-(1-amino-1-(4-fluorophenyl)ethyl)pyrimidin-2-yl)piperazin-1-yl)pyrrolo[1,2-f][1,2,4]triazin-6-yl)-1H-pyrazol-1-yl)ethanol] | Only Grade 1 adverse events | dose-proportional increase | linear | 20 to 28 | 753 to 973 | 1.5 to 6 | no clinically relevant findings | No serious AEs were reported | ≤ 7 | well-tolerated
